Our source for the IC50 and EC50 values is patent US8987257B2 (Novartis AG, priority 2011, dated 2015).

One test deals with PI3Kα (Homo sapiens (Human), UniProt P42336). The experiment in a line: Test 1: PI3 Kinase Assay (PI3K KinaseGlo assay). It counts as biochemical. The note with it: 1 μM ATP. In general terms: Kinase-Glo measures the ATP left after a reaction by luminescence.
For a further test, the target named is FRAP1/mTOR (Homo sapiens (Human), UniProt P42345). The experiment in a line: Test 2: mTOR Biochemical Assay (FRAP1/mTOR TR-FRET tracer assay). The test is classed as binding. The conditions noted are these: mTOR Kinase Tracer 314. On the technique in general: Time-resolved FRET reads energy transfer from a long-lived donor to a nearby acceptor.
Test [1] concerns constitutively active mTOR. The experiment in a line: Test 3: TSC Assay (high content imaging of phospho-S6 (240/244) in TSC1−/− MEFs). The conditions noted are these: Mus musculus, pS6 240/244 staining, 2 hrs compound treatment. It counts as cell-based.
Description: This assay generates IC50 values for compounds that inhibit mTOR.
Quantification of pS6 Staining Using High-Content Imaging and Analysis
Day 0: Cell plating. Subconfluent TSC1−/− MEFs are harvested by trypsinization, resuspended in growth medium, and counted. […] The plates are briefly spun down and placed at 37° C. and 5% CO2. • 2. Day 1: Cell plates are washed into a PBS starve solution (contains glucose, sodium bicarbonate, HEPES and phenol red) using a 384-well plate washer. The wash protocol aspirates the volume down to 30 μL/well before dispensing 60 μL/well of the PBS starve solution. Aspiration and dispensing steps are repeated 8 times and a final volume of 30 μL/well is left. The cell plates are placed at 37° C. and 5% CO2 for 2 hrs. • Compound treatment. Compound dose responses are prepared in DMSO. The dose responses are then diluted 1:50 in medium. 10 ul of the diluted compound is added to 30 ul of cells, yielding a final 1:200 dilution of the original compound and final of 0.5% DMSO. Compound-treatments are performed in triplicates. The plates are placed at 37° C. and 5% CO2 for 2 hrs. Cells are then fixed by adding 10 μL/well 5× concentrated Mirsky's fixative. […] The cell plates are briefly spun down and incubated for 1 h at room temperature. Cells are then washed using a 384-well plate washer using a protocol which aspirates the volume down to 30 μL/well before dispensing 60 μL/well 1×TBS. Aspiration and dispensing steps are repeated 8 times and then an additional aspiration step leaves a final volume of 10 μL/well. Block buffer (1×TBS+0.1% Triton X-100+0.1% BSA) is then added at 25 μL/well and the plates are incubated at room temperature for 30 min. The cell plates are then aspirated down to 10 μL/well. […] Plates are incubated overnight at 4° C. • 3. […] The bottom of the plate is cleaned with 70% ethanol and then imaged using the InCell 1000 automated epifluorescence microscope. […] Cy5 images are acquired using an excitation of 620 nm (Chroma 620—60× filter), an emission of 700 nm (Chroma HQ700—75M filter) and an exposure time of 200 ms. A double band pass mirror is used for all images. • 4. Image analysis: The InCell Analysis software is used to analyze the images using the Dual Object algorithm. […] The Cy5 fluorescence intensity inside the collar is measured (cell intensity) and results are reported on an “Average per cell” basis. • 5. IC50 calculation: IC50s are calculated by plotting the cell intensity values on the y-axis with dose response values on the x-axis. IC50 values represent compound potency against mTOR.
The test system of the next test is H4 mCherry-GFP-LC3 cells. The experiment in a line: Test 4: Autophagy Assay (mCherry-GFP-LC3 reporter, high-content imaging). It counts as cell-based. The note with it: Homo sapiens, Table 1, mCherry-positive LC3 puncta/cell, 16-18 h. The source says:
Autophagy is a catabolic pathway that degrades bulk cytosol in lysosomal compartments enabling amino acids and fatty acids to be recycled. […] To quantify autophagy induction by mTOR inhibitors, we use a mCherry-GFP-LC3 reporter which is amenable to retroviral delivery into mammalian cells, stable expression and analysis by fluorescence microscopy.
Described hereinafter is an imaging protocol and image recognition algorithm to visualize and measure changes in the autophagic pathway.
Quantification of Autophagy Using High-Content Imaging and Analysis
• 1. Day 0: Cell plating. Subconfluent H4 mCherry-GFP-LC3 cells are harvested by trypsinization, resuspended in growth medium, and counted (H4 cells: Human neuroglioma cell line (ATCC)). A cell suspension of 66′000 cells/mL is prepared and 30 μL are added into the wells of a 384-well plate using an electronic multichannel pipette. […] The cell plates are briefly spun down and placed at 37° C. and 5% CO2. • 2. Day 1: Compound treatment. Compound dose responses are prepared in DMSO. The dose responses are then diluted 1:50 in medium. 10 ul of the diluted compound is added to 30 ul of cells, yielding a final 1:200 dilution of the original compound and final of 0.5% DMSO. Compound-treatments are performed in triplicates. The 384-well plates are placed at 37° C. and 5% CO2. Compound treatment is performed for 16-18 h (see Note 1). • 3. Day 2: Cell fixation. Cells are fixed by adding 10 μL/well 5× concentrated Mirsky's fixative supplemented with 25 μg/mL Hoechst33342. […] The 384-well plate is briefly spun down and incubated for 1 h at room temperature. Cells are then washed using a 384-well plate washer using a protocol which aspirates the volume down to 10 μL/well before dispensing 100 μL/well 1×TBS. Aspiration and dispensing steps are repeated 4 times and a final volume of 100 μL/well is left. The plate is sealed using an adhesive PCR foil. • 4. Imaging. The bottom of the plate is cleaned with 70% ethanol and then imaged using the InCell 1000 automated epifluorescence microscope. 20× magnification is used and 4 different areas (fields) are imaged per well, this typically captures a total of around 400 cells per well. Hoechst33342 images are acquired using an excitation of 360 nm (D360—40× filter), an emission of 460 nm (HQ460—40M filter) and an exposure time of 150 ms. GFP images are acquired using an excitation of 475 nm (S47520× filter), an emission of 535 nm (HQ535—50M filter) and an exposure time of 1 s. mCherry images are acquired using an excitation of 535 nm (HQ535—50× filter), an emission of 620 nm (HQ620—60M filter) and an exposure time of 1 s. A quadruple band pass mirror is used for all images. • 5. Image analysis. The InCell Analysis software is used to analyze the images using the Multi Target Analysis algorithm. First, nuclei are detected in the Hoechst33342 image using top-hat segmentation and a minimal nuclear area of 50 μm^2. Cells are defined using a collar of 10 μm around the nuclei. Second, puncta (organelles) are identified in the mCherry image inside the cells using multi-top-hat segmentation. Third, the mask of the mCherry puncta is transferred onto the GFP image. Fourth, the GFP fluorescence intensity inside the mCherry puncta mask is measured (reference intensity). • 6. The ‘organelles’ parameter reflects mCherry-positive puncta of the mCherry-GFP-LC3 reporter and is used to calculate ‘LC3 puncta/cell’. For this purpose, the number of organelles is calculated per cell and averaged over all the cells in a given well (average per cell basis). mCherry-positive LC3 puncta numbers (y-axis) are plotted against the compound dose response values (x-axis) and EC50 values are calculated for each compound. EC50 values represent compound potency in terms of autophagy activation (e.g. increase in mCherry-positive LC3 puncta count). Notes • 1. Autophagy-modulation and redistribution of mCherry-GFP-LC3 can be already observed after a compound treatment time of 3-4 h. […]

FRAP1/mTOR, sequence (P42345 1360-2549): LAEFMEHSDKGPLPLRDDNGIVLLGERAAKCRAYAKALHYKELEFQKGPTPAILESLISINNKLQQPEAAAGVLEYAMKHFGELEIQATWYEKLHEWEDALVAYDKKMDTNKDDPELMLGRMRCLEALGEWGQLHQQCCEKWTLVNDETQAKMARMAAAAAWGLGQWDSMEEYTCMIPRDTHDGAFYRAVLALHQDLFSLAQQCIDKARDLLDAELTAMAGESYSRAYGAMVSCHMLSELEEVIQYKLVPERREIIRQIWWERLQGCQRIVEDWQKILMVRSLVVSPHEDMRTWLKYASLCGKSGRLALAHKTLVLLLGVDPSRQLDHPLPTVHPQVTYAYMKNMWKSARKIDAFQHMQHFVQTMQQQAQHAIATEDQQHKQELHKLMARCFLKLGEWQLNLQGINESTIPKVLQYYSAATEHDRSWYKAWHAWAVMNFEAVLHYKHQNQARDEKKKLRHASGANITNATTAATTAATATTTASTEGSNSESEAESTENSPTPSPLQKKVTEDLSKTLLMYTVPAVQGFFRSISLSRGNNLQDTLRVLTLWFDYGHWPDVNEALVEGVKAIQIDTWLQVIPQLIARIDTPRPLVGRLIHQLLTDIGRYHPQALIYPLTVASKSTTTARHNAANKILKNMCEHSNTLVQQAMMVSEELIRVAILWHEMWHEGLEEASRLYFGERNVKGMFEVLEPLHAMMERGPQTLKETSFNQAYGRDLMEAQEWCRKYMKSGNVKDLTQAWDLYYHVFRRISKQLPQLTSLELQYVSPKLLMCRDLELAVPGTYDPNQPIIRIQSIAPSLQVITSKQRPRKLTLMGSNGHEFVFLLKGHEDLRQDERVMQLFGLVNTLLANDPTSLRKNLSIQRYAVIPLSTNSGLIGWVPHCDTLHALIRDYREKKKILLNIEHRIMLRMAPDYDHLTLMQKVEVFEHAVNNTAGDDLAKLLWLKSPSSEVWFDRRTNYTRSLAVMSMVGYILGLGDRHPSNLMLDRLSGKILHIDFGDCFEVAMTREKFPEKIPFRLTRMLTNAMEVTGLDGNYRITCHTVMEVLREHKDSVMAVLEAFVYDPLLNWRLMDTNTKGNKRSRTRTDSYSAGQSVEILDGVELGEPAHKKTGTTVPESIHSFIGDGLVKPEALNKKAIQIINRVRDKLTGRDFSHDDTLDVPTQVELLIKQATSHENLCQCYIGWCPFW
PI3Kα, sequence (P42336 other isoform, or with tags, fused parts or gaps): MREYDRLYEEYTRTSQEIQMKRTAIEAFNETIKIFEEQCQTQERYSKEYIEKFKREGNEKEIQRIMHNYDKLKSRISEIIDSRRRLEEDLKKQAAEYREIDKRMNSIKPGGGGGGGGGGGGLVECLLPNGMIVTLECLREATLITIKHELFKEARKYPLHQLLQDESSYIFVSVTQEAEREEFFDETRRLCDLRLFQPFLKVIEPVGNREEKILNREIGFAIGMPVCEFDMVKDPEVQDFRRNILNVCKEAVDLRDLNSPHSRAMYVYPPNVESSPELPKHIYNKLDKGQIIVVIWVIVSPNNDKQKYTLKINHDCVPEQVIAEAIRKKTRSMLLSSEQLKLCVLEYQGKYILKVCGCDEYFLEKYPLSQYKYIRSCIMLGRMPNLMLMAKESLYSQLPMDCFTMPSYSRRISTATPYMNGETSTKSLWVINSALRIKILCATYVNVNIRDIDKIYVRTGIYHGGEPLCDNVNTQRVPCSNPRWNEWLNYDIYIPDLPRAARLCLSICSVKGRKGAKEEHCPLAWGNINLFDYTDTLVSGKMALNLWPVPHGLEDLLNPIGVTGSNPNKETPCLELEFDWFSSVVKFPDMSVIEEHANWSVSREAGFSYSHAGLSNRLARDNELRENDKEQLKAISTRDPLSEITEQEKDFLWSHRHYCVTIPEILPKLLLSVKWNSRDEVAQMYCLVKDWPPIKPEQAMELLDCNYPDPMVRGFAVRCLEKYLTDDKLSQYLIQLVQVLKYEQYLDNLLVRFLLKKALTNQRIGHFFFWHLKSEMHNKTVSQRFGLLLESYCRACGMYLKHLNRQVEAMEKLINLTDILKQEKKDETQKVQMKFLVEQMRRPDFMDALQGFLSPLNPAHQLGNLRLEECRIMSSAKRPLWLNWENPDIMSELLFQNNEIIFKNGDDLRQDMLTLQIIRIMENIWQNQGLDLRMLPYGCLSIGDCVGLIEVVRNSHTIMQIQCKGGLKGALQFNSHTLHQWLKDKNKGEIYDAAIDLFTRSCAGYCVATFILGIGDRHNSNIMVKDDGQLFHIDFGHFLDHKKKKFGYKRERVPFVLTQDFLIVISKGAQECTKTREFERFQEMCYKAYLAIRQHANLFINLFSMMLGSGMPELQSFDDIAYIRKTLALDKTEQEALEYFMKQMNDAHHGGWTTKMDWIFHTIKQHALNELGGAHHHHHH
Description for FRAP1/mTOR: IC50s for mTOR interacting compounds were assessed using the FRAP1/mTOR TR-FRET tracer assay (Invitrogen by Life Technologies). […] Compounds were serially diluted in DMSO (12-point, 4× dilution factor) and 1 μL of diluted compound was then added to each well and mixed by pipetting using a Biomek FX (Beckman Coulter).
Description for PI3Kα: L-a-phosphatidylinositol (PI), provided as 10 mg/ml solution in methanol, was transferred into a glass tube and dried under nitrogen beam. It was then resuspended in 3% OctylGlucoside (OG) by vortexing and stored at 4° C. The KinaseGlo Luminescent Kinase Assay (Promega, Madison/WI, USA) is a homogeneous HTS method of measuring kinase activity by quantifying the amount of ATP remaining in solution following a kinase reaction.
Kinase reactions were started by addition of 5 μl of ATP-mix containing in a final volume 10 μL 10 mM TRIS-HCl pH 7.5, 3 mM MgCl2, 50 mM NaCl, 0.05% CHAPS, 1 mM DTT and 1 μM ATP, and occurred at room temperature.
The PI3Kα construct is a fusion of p85α iSH2 domain and the respective p110 isoform. The p85α fragment and p110 isoform gene were generated by PCR from first strand cDNA generated by RT-PCR from commercial RNA from placenta, testis and brain as described below.
The p85 fragment was derived from plasmid p1661-2 digested with Nhe/Spe. The p110α fragment derived from its clone was verified by sequencing and used in LR410 as a SpeI/HindIII fragment. For the generation of the baculovirus expression vector LR410 the gateway LR reaction to transfer the insert into the Gateway adapted pBlueBac4.5 (Invitrogen) vector was used. The cloning vector pBlueBac4.5 (Invitrogen) was digested with Nhe/HindIII. […] The two reverse primers overlap and incorporate a 12×Gly linker and the N-terminal sequence of the p110α gene to the SpeI site. The PCR fragment was cloned into pCR2.1 TOPO (Invitrogen). Of the resulting clones, p1661-2 was determined to be correct by sequencing. This plasmid was digested with Nhe and SpeI and the resulting fragment was gel-isolated and purified for sub-cloning.
PI3Kα was purified in two chromatographic steps: immobilized metal affinity chromatography (IMAC) on a Ni sepharose resin (GE Healthcare) and gel filtration utilizing a Superdex 200 26/60 column (GE Healthcare). All buffers were chilled to 4° C. and lysis was performed chilled on ice. Column fractionation was performed at room temperature.

Regarding `C[C@H]1COCCN1c1nc(N2CCOC[C@@H]2C)c2nc(-c3ccc4cc[nH]c4c3)[nH]c2n1` [Example 14, 8-(1H-Indol-6-yl)-2,6-bis-((S)-3-methyl-morpholin-4-yl)-9H-purine], the values for the IC50 (on PI3Kα; at FRAP1/mTOR; in test [1]) were over 9100 nM, 7 nM and 349 nM, respectively. In the test with H4 mCherry-GFP-LC3 cells, this compound returned an EC50 of 1280 nM.
With `C[C@@H]1COCCN1c1nc(N2CCOC[C@H]2C)c2nc(-c3cccc4[nH]ccc34)[nH]c2n1` [Example 15, 8-(1H-Indol-4-yl)-2,6-bis-((R)-3-methyl-morpholin-4-yl)-9H-purine], the IC50 against PI3Kα is 4580 nM; against FRAP1/mTOR, 9 nM; in test [1], 62 nM. This compound registered an EC50 in the test with H4 mCherry-GFP-LC3 cells of 1780 nM.
`C[C@H]1COCCN1c1nc(N2CCC(O)CC2)nc2[nH]c(-c3cccc4[nH]ccc34)nc12` [Example 16, 1-[8-(1H-Indol-4-yl)-6-((S)-3-methyl-morpholin-4-yl)-9H-purin-2-yl]-piperidin-4-ol]: the IC50 on PI3Kα was 7300 nM; at FRAP1/mTOR, 160 nM; in test [1], 460 nM. This compound also displayed an EC50 in the test on H4 mCherry-GFP-LC3 cells of 2000 nM.
On the same counts, the results for `COc1cc(CO)cc(-c2nc3c(N4CCOC[C@@H]4C)nc(N4CCOC[C@@H]4C)nc3[nH]2)c1` [Example 17, {3-[2,6-Bis-((S)-3-methyl-morpholin-4-yl)-9H-purin-8-yl]-5-methoxy-phenyl}-methanol] are 400 nM, 399 nM, 1510 nM and 3190 nM.
Regarding `C[C@@H]1COCCN1c1nc(N2CCOC[C@@H]2C)c2nc(-c3cccc4[nH]ccc34)[nH]c2n1` [Example 18, 8-(1H-Indol-4-yl)-2-((R)-3-methyl-morpholin-4-yl)-6-((S)-3-methyl-morpholin-4-yl)-9H-purine], the IC50 on PI3Kα came out at 5050 nM; on FRAP1/mTOR, 46 nM; in test [1], 70 nM. In the test with H4 mCherry-GFP-LC3 cells, this compound yielded an EC50 of 2500 nM.
The matching figures for `C[C@@H]1COCCN1c1nc(N2CCOC[C@H]2C)c2nc(-c3cc(CO)ccc3F)[nH]c2n1` [Example 19, {3-[2,6-Bis-((R)-3-methyl-morpholin-4-yl)-9H-purin-8-yl]-4-fluoro-phenyl}-methanol]: 170 nM, 134 nM, 300 nM and 2000 nM.
On the same counts, the results for `C[C@@H]1COCCN1c1nc(N2CCOCC2)nc2[nH]c(-c3cccc4[nH]ccc34)nc12` [Example 20, 8-(1H-Indol-4-yl)-6-((R)-3-methyl-morpholin-4-yl)-2-morpholin-4-yl-9H-purine] are 6050 nM, 6 nM, 90 nM and 452 nM.
As to `C[C@@H]1COCCN1c1nc(N2CCOCC2)nc2[nH]c(-c3ccc4cc[nH]c4c3)nc12` [Example 21, 8-(1H-Indol-6-yl)-6-((R)-3-methyl-morpholin-4-yl)-2-morpholin-4-yl-9H-purine], the IC50 on PI3Kα is over 9100 nM; at FRAP1/mTOR, 237 nM; in test [1], 831 nM. In the test on H4 mCherry-GFP-LC3 cells, this compound showed an EC50 of 498 nM.
With `C[C@H]1COCCN1c1nc(N2CCOC[C@@H]2C)c2nc(-c3cccc4[nH]ccc34)[nH]c2n1` [Example 22, 8-(1H-Indol-4-yl)-2,6-bis-((S)-3-methyl-morpholin-4-yl)-9H-purine], the IC50 against PI3Kα was 5860 nM; at FRAP1/mTOR, 5 nM; in test [1] it was 113 nM. In the test on H4 mCherry-GFP-LC3 cells, this compound showed an EC50 of 761 nM.
The matching figures for `C[C@H]1COCCN1c1nc(N2CCOCC2)nc2[nH]c(-c3cccc4[nH]ccc34)nc12` [Example 23, 8-(1H-Indol-4-yl)-6-((S)-3-methyl-morpholin-4-yl)-2-morpholin-4-yl-9H-purine]: 5510 nM, 14 nM, 138 nM and 1610 nM.

As usually defined, the IC50 is the concentration that gives 50% inhibition. A higher IC50 goes with weaker potency. Broadly, the EC50 is the concentration giving half of the maximal effect. A low value points to higher potency in that assay.
